The results in this text go back to patent US9132130B2, “Purine derivative and antitumor agent using same” (ZENYAKU KOGYO KABUSHIKI KAISHA, priority 2009, dated 2015).

For series [1], the system named is WiDr cells (human colon cancer cells). Nature of the series: in vitro antitumor activity test, WiDr cells, XTT colorimetry. The class given is cell-based. The following applies: cultured 72 hours. In short, it runs like this: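 Human colon cancer cells in MEM/10% FBS were seeded 3×10^4 cells/ml and allowed to adhere for 24 h, then exposed to compounds prepared at 2.0×10^−9 to 2.0×10^−4 M in RPMI 1640 for 72 h at 37° C, 5% CO2. Growth was read by XTT colorimetry and GI50 (μM) calculated.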

For a further series, the system named is human colon cancer WiDr. Nature of the series: in vivo antitumor activity, nude mice transplanted with human colon cancer WiDr. The settings on record: 400 mg/kg orally daily day 0 to day 13 (12 times), tumor volume at day 14. More on the design: species or system BALB/c-nu/nu mice. As for the experimental part:
(§1) Tumor tissue fragments of human colon cancer WiDr (3 mm×3 mm×3 mm) were transplanted subcutaneously into the chests of six-week-old female BALB/c-nu/nu mice, and sample administration started when the tumor volume reached at least approximately 100 mm^3 (day 0). Compound 2 was suspended in a 1% HPC (L) solution using an agate mortar. 400 mg/kg of Compound 2 was orally administered daily from day 0 to day 13 (excluding day 3 and day 10, a total of 12 times). Tumor diameters were measured to calculate tumor volume (½×long diameter×short diameter×short diameter), and the tumor volume after 14 days (at day 14) from the start of sample administration was divided by the tumor volume at the start of the administration to calculate relative tumor growth rate. The percentage of the relative tumor growth rate of the control group with respect to the relative tumor growth rate of the group administered with Compound 2 was taken as T/C (%).

The subject of series [2] is MCF-7 cells (human breast cancer cells). The series can be described thus: antitumor activity against breast cancer cells, cell counting. The format is cell-based. The settings on record: MCF7; MCF-7 human breast cancer cells, cultured 72 hours, cell counter. As for the experimental part:
MCF-7 cells (human breast cancer cells) subcultured in a culture medium composed of a MEM medium added with 10% fetal bovine serum, 25 mM HEPES and 0.1 mg/ml kanamycin under the conditions of 37° C. and 5% carbon dioxide gas were made into single floating cells by treating with trypsin/EDTA, and a single cell suspension of 4×10^4 cells per 1 ml was prepared using the MEM medium (added with 10% fetal bovine serum, 25 mM HEPES and 0.1 mg/ml kanamycin). After dissolving the test substances (Compound 2 and Compound 7) in DMSO, they were diluted with the MEM medium (added with 10% fetal bovine serum, 25 mM HEPES and 0.1 mg/ml kanamycin) and prepared so that the concentrations were 6.4×10^−8 to 2.0×10^−5 M.
0.1 ml of the cell suspension was placed into each well of a 96-well microplate, cultured for 24 hours to allow the cells to adhere to the microplate, then 0.1 ml of the sample solutions were added, and cultured for 72 hours at 37° C. in 5% carbon dioxide gas.
Afterwards, the cells in each well were made single floating cells by treating with trypsin/EDTA, and the number of cells was counted using a cell counter to obtain the growth inhibition rate at various sample concentrations and calculate the concentrations at which growth was inhibited by 50% (GI50 values [μM]).

Series [3] concerns P388 cells (mouse leukemia cells). Nature of the series: in vitro antitumor activity test, P388 cells, XTT colorimetry. The settings on record: cultured 72 hours. The format is cell-based. In short, it runs like this: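 Cells from DBA/2 mouse ascites, in RPMI 1640 with 10% FBS and 25 mM HEPES, seeded from a 4×10^4 cells/ml suspension. Equal volume added of compound solutions prepared at 2.0×10^−9 to 2.0×10^−4 M (pre-mixing). After 72 h at 37° C, 5% CO2, growth read by XTT; GI50 (μM) is the concentration giving 50% growth inhibition.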

The test system of series [4] is human prostate cancer PC-3. The series can be described thus: in vivo antitumor activity, nude mice transplanted with human prostate cancer PC-3. The following applies: PC-3 in nude mice, 400 mg/kg orally daily day 0 to day 13 (12 times), tumor volume at day 14. Also on record: species or system BALB/c-nu/nu mice. The protocol: as §1, with “prostate” for “colon”, “PC-3” for “WiDr”

The test system of another series is human lung cancer A549. The series can be described thus: in vivo antitumor activity, nude mice transplanted with human lung cancer A549. Also on record: species or system BALB/c-nu/nu mice. The settings on record: 400 mg/kg orally daily day 0 to day 13 (12 times), tumor volume at day 14. As for the experimental part:
as §1, with “of human lung cancer A549” for “of human colon cancer WiDr”, “lung cancer A549 (3 mm×3” for “colon cancer WiDr (3 mm×3”, “Compound 2 and Compound 7 were suspended in” for “Compound 2 was suspended in”, “a 1% hydroxypropylcellulose (HPC [L]) solution using” for “a 1% HPC (L) solution using”, “day 10, a total of 12 times). 400 mg/kg of Compound 7 was intraperitoneally administered daily from day 0 to day 13 (excluding day 4 and day 11, a total” for “day 10, a total”, “Compound 2 or Compound 7 was taken” for “Compound 2 was taken”

For series [5], the system named is B16F10 cells (mouse melanoma [malignant melanoma] cells). The series can be described thus: in vitro antitumor activity test, B16F10 cells, XTT colorimetry. The class given is cell-based. The settings on record: B16-F10, cultured 72 hours. In short, it runs like this:
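B16F10 mouse melanoma cells were seeded from a 1×10^4 cells/ml suspension and allowed to adhere for 24 h. Compounds in DMSO were diluted in RPMI 1640 with 10% FBS to 2.0×10^−9 to 2.0×10^−4 M and incubated 72 h at 37° C, 5% CO2. XTT colorimetry gave GI50 (μM).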

The subject of series [6] is PC-3 cells (human prostate cancer cells). Nature of the series: in vitro antitumor activity test, PC-3 cells, XTT colorimetry. The settings on record: PC-3 human prostate cancer cells, cultured 72 hours. The format is cell-based. In short, it runs like this:
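PC-3 human prostate cancer cells, seeded at 2×10^4 cells/ml and allowed to adhere for 24 h, were exposed 72 h at 37° C, 5% CO2 to compound diluted in RPMI 1640 with 10% FBS to 2.0×10^−9 to 2.0×10^−4 M (pre-addition solutions). Growth was measured by XTT colorimetry and GI50 (μM) calculated.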
Background: Tetrazolium assays rely on reduction of a dye to a coloured formazan, in cell work by metabolically active cells.

In series [7] the test system is A549 cells (human lung cancer cells). The series can be described thus: in vitro antitumor activity test, A549 cells, XTT colorimetry. The class given is cell-based. The settings on record: cultured 72 hours. In short, it runs like this:
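Cells seeded at 2×10^4 cells/ml in MEM + 10% FBS, 25 mM HEPES, kanamycin, allowed to adhere 24 h, then exposed to compounds (DMSO stocks diluted in RPMI 1640; prepared at 2.0×10^−9 to 2.0×10^−4 M) for 72 h at 37 °C, 5% CO2. Growth inhibition read by XTT colorimetry; GI50 (μM) calculated.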

On to `CCc1nc2c(N3CCOCC3)nc(SCc3ccc(OC)c(N)c3)nc2n1C` [Compound 2, 2-(3-amino-4-methoxybenzylsulfanyl)-8-ethyl-9-methyl-6-morpholino-9H-purine], for which the melting point – broadly, the temperature, or range, at which the solid turns liquid – turned out to be 139 °C. In series [1], the GI50 – broadly, the concentration at which growth is held to half of that of the control – came to 300 nM. Also, the T/C (usually the result in the treated group divided by that in the control group, in per cent) with human colon cancer WiDr was 62.1%. This compound returned a 50% growth inhibitory concentration (GI50) in [2] of 110 nM. The compound also returned a GI50 in [3] of 110 nM. Besides, the T/C in [4] is given as 32.2%. This compound gave a T/C with human lung cancer A549 of 73.1%. The same compound returned a GI50 in [5] of 300 nM. Besides, it took 100 nM to inhibit growth in series [6] by half (GI50). This compound also registered a GI50 in series [7] of 140 nM.
